Test results from patent publication US8772448B2, “Peptides immunoreactive with autoantibodies from patients suffering from rheumatoid arthritis” (Stichting Voor de Technische Wetenschappen, priority 1996, dated 2014).
Where no end group is shown, it is not given here. [ ]: non-standard residue; d: D form. Cit = NC(=O)NCCC[C@H](N)C(=O)O

Tests used:
[1] = test system: antibodies in sera from patients suffering from various infectious diseases; assay: ELISA with sera from patients suffering from various infectious diseases; type: binding, human; conditions: 308 tested sera
[2] = test system: antibodies in SLE (systemic lupus erythematosus) sera; assay: ELISA of coupled peptides with SLE sera; type: binding, human; conditions: n = 50
Procedure: (§1) Detection by Means of ELISA
(§2) Via an N-oxysuccinimide surface the peptides were covalently coupled to the wells of 96-well microtitre plates (Costar amide binding plates) in an amount of 1 ? g/well. Coupling took place for 16 hours at 4EC and pH 9.0. The plates were blocked for 1 hour with 2% bovine serum albumin. The sera were diluted 200 times in a diluent (0.3% BSA, 350 mM NaCl, 10 mM Tris-HCl pH 7.6, 1% vol./vol. Triton X-100, 0.5% w./vol. Na-deoxycholate, 0.1% SDS) supplemented with 10% normal rabbit serum, and incubated for one hour at room temperature. After washing the plates (3 times with PBS containing 0.05 by vol. of Tween® 20), 100 ? l of antihuman IgG conjugated with peroxidase (Dako P214), 1000 times diluted in dilution buffer, was added to the wells. After incubation for 1 hour at room temperature, the plates were washed 3 times with PBS/Tween®, and bound antibodies were detected with tetramethyl benzidine as a substrate. After 10 minutes the reaction was stopped by adding 100 ? l of 2 M sulphuric acid per well. Readout occurred at 450 nm. Sera having an OD450 of 0.2, after deduction of the blank for the respective serum (a well without a coupled peptide), were considered to be positive.

[3] = test system: antibodies in pSS (primary Sjögren's syndrome) sera; assay: ELISA of coupled peptides with pSS sera; type: binding, human; conditions: n = 50
Procedure: as §1, §2

[4] = test system: recombinant monoclonal antibody described by applicants; assay: Reactivity of peptides with the recombinant monoclonal antibody; type: binding
[5] = test system: antibodies in PM/DM (polymyositis/dermatomyositis) sera; assay: ELISA of coupled peptides with PM/DM sera; type: binding, human; conditions: n = 50
Procedure: as §1, §2

[6] = test system: antibodies in control sera from patients suffering from rheumatic diseases other than RA; assay: ELISA of coupled peptides with control sera; type: binding, human; conditions: for control sera (%) positive / control sera: number of positive sera: n = 154, rheumatic diseases other than RA
Procedure: as §1, §2
In total, 288 sera from patients suffering from rheumatoid diseases were used, 132 of which were from patients suffering from rheumatoid arthritis.

[7] = test system: autoimmune antibodies in sera from patients suffering from rheumatoid arthritis; assay: ELISA of coupled peptides with RA sera; type: binding, human; conditions: n = 134 RA sera, positive = OD450 of 0.2 after deduction of blank; for RA sera: number of positive sera: sera diluted 200 times
Procedure: as §1
as §2, with “positive. […]” for “positive.”

[8] = test system: antibodies in SSC (systemic scleroderma) sera; assay: ELISA of coupled peptides with SSC sera; type: binding, human; conditions: n = 50
Procedure: as §1, §2

Sequence	infectious disease sera: number positive [1]	specificity in respect of infectious disease sera [1]	SLE (%) positive [2]	SLE: number of positive sera [2]	pSS: number of positive sera [3]	reactivity with the recombinant monoclonal antibody [4]	PM/DM: number of positive sera [5]	control sera (%) positive [6]	control sera: number of positive sera [6]	percentage of false positives ([6]; other autoimmune diseases and healthy individuals)	RA sera (%) positive [7]	RA sera (%) positive ([7]; listed as Formula II)	RA sera: number of positive sera [7]	SSC: number of positive sera [8]	pSS (%) positive [3]	PM/DM (%) positive [5]
SHQESTXGRSRGRSGRSGS (SHQEST[Cit]GRSRGRSGRSGS-NH2; N-terminus assumed; SMILES C[C@@H](O)[C@H](NC(=O)[C@H](CO)NC(=O)[C@H](CCC(=O)O)NC(=O)[C@H](CCC(N)=O)NC(=O)[C@H](Cc1c[nH]cn1)NC(=O)[C@@H](N)CO)C(=O)N[C@@H](CCCNC(N)=O)C(=O)NCC(=O)N[C@@H](CCCNC(=N)N)C(=O)N[C@@H](CO)C(=O)N[C@@H](CCCNC(=N)N)C(=O)NCC(=O)N[C@@H](CCCNC(=N)N)C(=O)N[C@@H](CO)C(=O)NCC(=O)N[C@@H](CCCNC(=N)N)C(=O)N[C@@H](CO)C(=O)NCC(=O)N[C@@H](CO)C(N)=O) [cfc1]	9	97%	2%	1	0	reactive	0	0.6%	1	less than 2%	36%	about 36%	49	0	–	–
SHQESTXGXSRGRSGRSGS (SHQEST[Cit]G[Cit]SRGRSGRSGS-NH2; N-terminus assumed; SMILES C[C@@H](O)[C@H](NC(=O)[C@H](CO)NC(=O)[C@H](CCC(=O)O)NC(=O)[C@H](CCC(N)=O)NC(=O)[C@H](Cc1c[nH]cn1)NC(=O)[C@@H](N)CO)C(=O)N[C@@H](CCCNC(N)=O)C(=O)NCC(=O)N[C@@H](CCCNC(N)=O)C(=O)N[C@@H](CO)C(=O)N[C@@H](CCCNC(=N)N)C(=O)NCC(=O)N[C@@H](CCCNC(=N)N)C(=O)N[C@@H](CO)C(=O)NCC(=O)N[C@@H](CCCNC(=N)N)C(=O)N[C@@H](CO)C(=O)NCC(=O)N[C@@H](CO)C(N)=O) [cfc6]	–	–	–	0	2	–	1	0.6%	1	–	48%	–	65	0	4%	2%
SHQESTXGRSRGXSGRSGS (SHQEST[Cit]GRSRG[Cit]SGRSGS-NH2; N-terminus assumed; SMILES C[C@@H](O)[C@H](NC(=O)[C@H](CO)NC(=O)[C@H](CCC(=O)O)NC(=O)[C@H](CCC(N)=O)NC(=O)[C@H](Cc1c[nH]cn1)NC(=O)[C@@H](N)CO)C(=O)N[C@@H](CCCNC(N)=O)C(=O)NCC(=O)N[C@@H](CCCNC(=N)N)C(=O)N[C@@H](CO)C(=O)N[C@@H](CCCNC(=N)N)C(=O)NCC(=O)N[C@@H](CCCNC(N)=O)C(=O)N[C@@H](CO)C(=O)NCC(=O)N[C@@H](CCCNC(=N)N)C(=O)N[C@@H](CO)C(=O)NCC(=O)N[C@@H](CO)C(N)=O) [cfc8]	–	–	–	0	1	–	1	0.6%	1	–	41%	–	55	0	2%	2%
